Measured values: patent publication US10688143B2, “Composition containing extract or fraction of genus Justicia plant” (priority 2014, dated 2020)
Like-named read-outs stand apart in the source and are kept apart here.

What was measured:
[1] = system: Balb/c mouse asthma models; test: Inhibition of asthma in Balb/c mouse asthma models (ovalbumin): serum IgE, BALF IL-4, IL-5, inflammatory cells; format: in vivo; details: extracts 200 mg/kg oral daily for 10 days, dexamethasone 3 mg/kg intraperitoneal
Experimental: 5-week-old Balb/c mice were purchased and acclimated for 1 week. On 0 and 14 days of 1 week of acclimation, the mice were systematically sensitized by intraperitoneally administering 0.1% ovalbumin (OVA: 1 mg/mL, Al(OH)3: 20 mg/mL) in an amount of 100 μl/mouse. […] As a positive control, 3 mg/kg of dexamethasone was administered intraperitoneally. After one hour, 0.2% ovalbumin solution was sprayed and inhaled into the mice for 1 hour by use of a nebulizer (PARI Boy SX, Germany GmbH). 5 hours after final sensitization (30 days), the mice were biopsied, and whole blood was sampled from the mice and centrifuged at 12000 rpm for 10 minutes to separate serum. In addition, the lung tissue was isolated from each mouse and flushed with 1 mL of phosphate buffered saline through tracheostomy to collect bronchoalveolar lavage fluid (BALF). The collected bronchoalveolar lavage fluid was centrifuged at 3000 rpm for 10 minutes, and the supernatant was used to measure physiologically active substances (IL-4, and IL-5), and the pellets were used to measure the number of inflammatory cells.
The IgE concentration in the separated serum was measured using IgE enzyme-linked immonosorbent assay (ELISA, Komabiotech Inc.), and the physiologically active substances (interleukin-4 (IL-4) and interleukin-5 (IL-5)) in the isolated bronchoalveolar lavage fluid were measured using an enzyme-linked immonosorbent assay (ELISA, IL-4: Enzo # ADI-900-043, IL-5: R&D system # M5000) corresponding to each substance. The results of the measurement are shown in Table 14 below, and the ability of each extract to inhibit IgE secretion was calculated in the same manner as equation 4 shown in Example 3.
In addition, the bronchoalveolar lavage fluid pellets were re-dissolved in 0.5 mL of phosphate buffered saline, and 0.1 mL of the solution was added to each well of a 96-well plate and centrifuged at 800 rpm for 5 minutes to attach the cells to the bottom (3 wells per sample). Then, each sample was stained with Diff Quik staining solution (Sysmex), and photographed with a microscope at 2-6 random sites. About 200 cells per sample were counted to calculate the percentage (%) of inflammatory cells of each group. The total number of inflammatory cells was measured with a microscope using a hematocytometer, and the number of basophils was calculated using the percentage (%) of each inflammatory cells, and is shown in FIG. 1. Statistical processing was performed using an SPSS program, and a Levene test was performed for a test for equal variance, and significance was tested by one-way analysis (ANOVA).

[2] = system: Balb/c mouse rhinitis models; test: Inhibition of IgE secretion in Balb/c mouse rhinitis models (ovalbumin); format: in vivo; details: extract 200 mg/kg oral daily for 1 week, dexamethasone 3 mg/kg intraperitoneal
Experimental: Specifically, 5-week-old Balb/c mice were purchased and acclimated for 1 week. On 0, 7 and 14 days of one week of acclimation, the mice were systematically sensitized by intraperitoneally injecting 0.1% ovalbumin (OVA: 1 mg/mL, Al(OH)3: 20 mg/ml) in an amount of 100 μl/mouse. […] As a positive control, 3 mg/kg of dexamethasone was intraperitoneally administered. After 1 hour, 0.4% ovalbumin solution was dropped into the nasal cavity. In the afternoon, 0.4% ovalbumin solution was dropped once more into the nasal cavity. […] The inhibition (%) of IgE secretion was calculated using the following equation 4: Inhibition (%) of secretion=100−{(concentration in test group−concentration in normal group)/(concentration in ovalbumin-induced group−concentration in normal group)}×100 Equation 4

[3] = system: RBL-2H3 rat basophilic cells; test: Degranulation inhibition (β-hexosaminidase secretion) in RBL-2H3 basophils induced with PMA/A23187; format: cell-based
Experimental: (§1) MC/9 mouse mast cells were purchased from the American Tissue Cell Culture (ATCC # CRL-8306), and RBL-2H3 rat basophilic cells were purchased from the Korean Cell Link Bank (KCLB #22256). MC/9 mast cells and RBL-2H3 basophils were diluted at concentrations of 2×10^6 cells/mL and 5×10^5 cells/mL, respectively, and 400 μl of each of the dilutions was dispensed into each well of 24-well plates. Each well was pretreated with 10 μg/mL or 20 μg/mL of each of the extracts and fractions (prepared in Preparation Examples 1 and 2 and shown in Tables 1 to 5 above) for 30 minutes, and then degranulation of the cells was induced with 200 nM PMA/10 mM A23187 for 1 hour. […] The absorbance at 405 nm was measured, and β-hexosaminidase secretion (%) was calculated using the following equation 2: β-hexosaminidase secretion (%)={absorbance of medium/(absorbance of cell lysate+absorbance of medium)}×100 Equation 2
(§2) Based on β-hexosaminidase secretion (%) obtained using equation 2 above, the degranulation inhibitory ability of each of the Justicia procumbens L. extracts was calculated using the following equation 3 (β-heXo: β-hexosaminidase): Degranulation inhibitory ability (%)={(β-hexo secretion % of test group−β-hexo secretion % of normal group)/(β-hexo secretion % of control group−β-hexo secretion % of normal group)}×100 Equation 3

MC/9 mouse mast cells = test: Degranulation inhibition (β-hexosaminidase secretion) in MC/9 mast cells induced with PMA/A23187; format: cell-based
Experimental: as §1, §2

U266B1 cells = test: Inhibition of IgE antibody secretion in U266B1 cells (IgE ELISA); format: cell-based
Experimental: The U266B1 cells used were purchased from the American Tissue Cell Culture (ATCC # TIB-196). Specifically, U266B1 cells were diluted in RPMI medium containing 15% fetal bovine serum (FBS) and antibiotics (100 U/mL of penicillin and 100 μg/mL of streptomycin) at a concentration of 2×10^5 cells/mL, and then the dilution was dispensed in a 24-well plate at a concentration of 400 μl/well and in a 96-well plate at a concentration of 100 μl/well, and incubated in a 5% CO2 incubator at 37° C. for 72 hours.
The U266B1 cells were treated with 5 mg/mL of each of the Justicia procumbens L. extracts and fractions (prepared in Preparation Examples 1 and 2 and shown in Tables 1 to 5). The medium in the 24-well plate was used to measure IgE antibody secretion, and the 96-well plate was used to measure cytotoxicity.
For measurement of IgE antibody secretion, the medium in the 24-well plate was collected and centrifuged at 125×g for 5 minutes to remove debris. 100 g of the medium was diluted 10-fold, and then the degree of IgE secretion was measured using IgE enzyme-linked immonosorbent assay (ELISA, Komabiotech Inc).

With `C[C@@H]1C[C@H]2[C@@H]3CCC4=CC(=O)C=C[C@]4(C)[C@@]3(F)[C@@H](O)C[C@]2(C)[C@@]1(O)C(=O)CO` [Dexamethasone] the “Bronchoalveolar lavage fluid IL-4 (inhibition of IgE secretion, (%)), Mean ± SD” value [1] was “(72.7 ± 3.8) %”, the “Bronchoalveolar lavage fluid IL-4 (pg/mL), Mean ± SD” value [1] was 56.0 ± 2.1 # pg/mL and the “Bronchoalveolar lavage fluid IL-5 (inhibition of IgE secretion, (%)), Mean ± SD” value [1] was “(98.7 ± 9.2) %”. The “Bronchoalveolar lavage fluid IL-5 (pg/mL), Mean ± SD” value [1] was 4.8 ± 3.2 # pg/mL, the “Serum IgE concentration (ng/mL), Mean ± SD” value [1] was 85.8 ± 4.9 # ng/mL and the “Serum IgE (inhibition of IgE secretion, (%)), Mean ± SD” value ([1]; equation 4) was “(25.0 ± 5.8) %”. For the same compound, the “Serum IgE concentration (ng/mL, Mean ± SE)” value [2] was 32.2 ± 4.4 ng/mL, the “Inhibition of IgE secretion (%, Mean ± SE)” value ([2]; equation 4) was 67.3 ± 6.3% and the inhibition at 10 µg/mL ([3]; RBL-2H3, 10 μg/mL, Table 11, read-out: Degranulation inhibition (%) (n = 3, Mean ± SE)) was 14 ± 3%. The inhibition at 20 µg/mL ([3]; RBL-2H3, 20 μg/mL, Table 9, read-out: Inhibition (%) of degranulation (n = 3, Mean ± SE)) was 18 ± 1%, the “Degranulation inhibition (%) (n = 3, Mean ± SE)” value (MC/9 mouse mast cells; MC/9, 10 μg/mL, Table 11) was 35 ± 0.2% and the “Inhibition (%) of degranulation (n = 3, Mean ± SE)” value (MC/9 mouse mast cells; MC/9, 20 μg/mL, Table 9) was 64 ± 0.2%. For the same compound, the inhibition at 5 µg/mL (U266B1 cells; U266B1, 5 μg/mL, organic solvent extracts and fractions, Table 8, read-out: IgE secretion inhibition (%) (n = 3, Mean ± SE)) was 4 ± 3.4% and the inhibition at 5 µg/mL (U266B1 cells; U266B1, concentration of test group 5 μg/mL, Table 6, read-out: IgE secretion inhibition (%) (n = 4, Mean ± SE)) was 8 ± 15%.
